B1: TRAIL: TNF-related apoptosis inducing ligand (protein, UniProt P50591 1-281, looked up)
Tumor necrosis factor ligand …: MAMMEVQGGPSLGQTCVLIVIFTVLLQSLCVAVTYVYFTNELKQMQDKYSKSGIACFLKEDDSYWDPNDEESMNSPCWQVKWQLRQLVRKMILRTSEETISTVQEKQQNISPLVRERGPQRVAAHITGTRGRSNTLSSPNSKNEKALGRKINSWESSRSGHSFLSNLHLRNGELVIHEKGFYYIYSQTYFRFQEEIKENTKNDKQMVQYIYKYTSYPDPILLMKSARNSCWSKDAEYGLYSIYQGGIFELKENDRIFVSVTNEHLIDMDHEASFFGAFLVG

How the values were obtained:
[1] = test system: 9L gliosarcoma cells genetically engineered to stably express firefly luciferase (9LLuc); assay: BCNU chemotherapy of orthotopic 9L-Luc rat brain tumors, log cell kill from serial MRI and BLI; format: in vivo; conditions: intracerebral 9LLuc tumor, treated 16 days after implantation, mean ±SEM, n=5
Source text: Current assessment of orthotopic tumor models in animals utilizes survival as the primary therapeutic endpoint. In vivo bioluminescence imaging ([…]) is a sensitive imaging modality that is rapid and accessible, and comprises an ideal tool for evaluating antineoplastic therapies. Using human tumor cell lines constitutively expressing luciferase, the kinetics of tumor growth and response to therapy have been assessed in intraperitoneal, subcutaneous and intravascular cancer models. […] Therefore, the ability of BLI to noninvasively quantitate the growth and therapeutic-induced cell kill of orthotopic rat brain tumors derived from 9L gliosarcoma cells genetically engineered to stably express firefly luciferase (9L^Luc) was investigated.
Intracerebral tumor burden was monitored over time by quantifying photon emission and tumor volume using a cryogenically-cooled CCD camera and magnetic resonance imaging (MRI), respectively. Excellent correlation (r=0.91) between detected photons and tumor volume was found.
FIGS. 5A-5O show a temporal analysis of the response of a 9L^Luc tumor to BCNU chemotherapy. […] Tumor volume was monitored with T2-weighted MRI (FIGS. 5A-5F) and infra-tumoral luciferase activity was monitored with BLI (FIGS. 5G-5L). […] Quantitative analysis of tumor progression and response to BCNU chemotherapy is shown by the graph FIG. 50. […]

[2] = test system: D-54 cells expressing ER-Luc-ER caspase-3 reporter; assay: Western blot of caspase-3 reporter (ER-Luc-ER) cleavage in D-54 cells; format: cell-based; conditions: various concentrations for 3 hrs
Protocol: FIG. 7 depicts a western blot showing induction of apoptosis. In D-54 cells, a caspase-3 reporter construct analogous to the one described in FIG. 6 except with ER domains as well as the caspase-3 cleavage sequence (DEVD) were present on the amino and carboxy termini (ER-Luc-ER) was used in the above studies. […] D-54 cells expressing this molecule were treated with TRAIL (TNF-related apoptosis inducing ligand) at various concentrations for 3 hrs.

[3] = test system: D-54 derived stable cell line expressing a caspase-3 reporter molecule; assay: Non-invasive bioluminescence imaging of apoptosis in D-54 caspase-3 reporter tumors in nude mice; format: in vivo; conditions: 50 ug intratumorally, s.q. D-54 reporter tumors in nude mice, IVIS imaging after luciferin
Source text: FIG. 6 depicts one strategy for imaging apoptosis. In this example, an estrogen regulatory domain results in silencing of luciferase due to sequestration. Activation of caspase-3 during apoptosis results in cleavage at the DEVD site, thus, releasing luciferase from the silencing effects of the estrogen regulatory domain. The free luciferase can, in the presence of luciferin, generate bioluminescense which can be imaged in vitro or in vivo using a Xenogen camera system.
FIGS. 8A and 8B depict non-invasive imaging of apoptosis. D-54 derived stable cell line expressing a caspase-3 reporter molecule similar to that described in FIG. 6 was implanted s.q. into nude mice. When the tumors reached a palpatable size they were treated with vector only (PBS, Panel A) or with 50 ug of TRAIL intratumoraly (panel B). Bioluminescent activity within the tumor was then measured after injection of luciferin using a IVIS imaging system.

| Molecule | Log cell kill calculated using BLI ([1]; BLI photon emission) | Log cell kill calculated using MRI ([1]; T2-weighted MRI tumor volume) | cleavage of ER-Luc-ER reporter (luciferase specific antibody western blot) [2] | increase in bioluminescence compared to the vector control [3] |
| --- | --- | --- | --- | --- |
| O=NN(CCCl)C(=O)NCCCl [BCNU, 1,3-bis(2-chloroethyl)-1 nitrosourea] | 1.84±0.73 | 1.78±0.36 | – | – |
| B1 | – | – | cleaved to a 90 kD molecule (ER-Luc) and subsequently to Luc (60 kD) | 2-3 × |
